Paper PMC8401923, “Processing Impact on In Vitro and In Vivo Performance of Solid Dispersions—A Comparison between Hot-Melt Extrusion and Spray Drying” (Pharmaceutics, 2021)
≈ marks a conversion by molar mass, not a printed value. Like-named read-outs stand apart in the source and are kept apart here.

How the values were obtained:
Format in all cases: physicochemical
pKa of posaconazole = experiment: pKa of posaconazole
Excerpt: (§1) Table 1 Physical/chemical properties of posaconazole.

Log P of posaconazole = experiment: Log P of posaconazole
Excerpt: as §1

[1] = Solubility of crystalline posaconazole
[2] = Two-stage biorelevant dissolution (SGF then FaSSIF)
Protocol: Simulated gastric fluid (SGF) was made with sodium chloride (34.2 mM), and the pH was adjusted to 1.8 with 12N HCl. The 2× fasted state simulated intestinal fluid (FaSSIF) was prepared using simulated intestinal fluid (SIF) powder (purchased from Biorelevant.com Ltd., London, UK), sodium phosphate monobasic monohydrate (114.5 mM), and sodium chloride (423.7 mM), and the pH was adjusted to 6.9 [35, 36].
Two-stage dissolution was performed on the solid dispersion powder at the dose relevant level of drug quantity using the Distek Model 2500 dissolution system (North Brunswick, NJ USA) with USP Apparatus 2 (paddles) setup. The paddles were operated at 100 rpm, and the dissolution medium was maintained at 37 ± 0.5 °C. The SGF medium of 250 mL was added for the first stage, and then FaSSIF medium of 250 mL at 30 min was added for the second stage to achieve the correct pH, ionic strength, and bile salt levels for FaSSIF. The time points that the sample was withdrawn were indicated by the dots in the dissolution plots. At each time point, ~2 mL was sampled and syringe-filtered (0.45 µm PVDF filter). The filtrate was diluted with diluent (water:acetonitrile = 1:1 v/v) and analyzed by an Agilent HPLC (Santa Clara, CA, USA) with a UV detector. […]

XPS surface composition = conditions: 25% bulk drug loading with HPMCAS
Protocol: X-ray Photoelectron Spectroscopy (XPS). XPS experiments were performed using a Physical Electronics Quantera SXM instrument equipped with a monochromatic Al Kα x-ray source (hν = 1486.6 eV) and a concentric hemispherical analyzer. Charge neutralization was performed using low energy (1.5 eV) electrons and low energy (8 V) Ar^+ ions. The binding energy axis was calibrated using sputter cleaned Cu foil (Cu 2p3/2 = 932.62 eV) and Au foil (Au 4f7/2 = 83.96 eV). Spectra were charge references to C-(C,H) at 284.8 eV. All measurements were performed at an electron takeoff angle of 45° relative to the sample platen plane.

Structure (SMILES): CC[C@@H]([C@H](C)O)n1ncn(-c2ccc(N3CCN(c4ccc(OC[C@@H]5CO[C@@](Cn6cncn6)(c6ccc(F)cc6F)C5)cc4)CC3)cc2)c1=O [posaconazole]
- pKa (pKa of posaconazole; piperazine N): 3.6
- pKa (pKa of posaconazole; triazole N): 4.6
- logP (Log P of posaconazole): 5
- solubility ([1]; fasted state simulated intestinal fluid (FaSSIF), fassif, read-out: Solubility): 2 µg/mL (≈ 2.85 µM)
- solubility ([1]; pH 1, read-out: Solubility): 790 µg/mL (≈ 1130 µM)
- solubility ([1]; pH 3, read-out: Solubility): 3 µg/mL (≈ 4.28 µM)
- solubility ([1]; pH 7, read-out: Solubility): 1 µg/mL (≈ 1.43 µM)
- solubility ([1]; simulated gastric fluid (SGF), pH 1.8, read-out: crystalline solubility): ~790 µg/mL (≈ 1130 µM)
- drug release in SGF stage (in words) ([2]; SGF pH 1.8, first 30 min): the percent dissolved is high
- drug release in FaSSIF stage (in words) ([2]; second stage, FaSSIF): significantly drops to approximately the crystalline solubility
- ~API Loading on Surface Based on F and N (XPS surface composition): ~100%
